According to PubChem BioAssay (NCI):
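Cells were grown in 96-well plates and exposed to each compound for 48 hours at five concentrations; endpoints were interpolated linearly between bracketing concentrations, or set to the highest concentration if not reached. GI50 marks 50% less growth. Definition used: TGI = concentration required for complete inhibition of growth.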

Tests used:
Experiment in all cases: DTP human tumour cell line panel, 48 h
HCC-2998 colon = system: HCC-2998 colon
RPMI-8226 leukemia = system: RPMI-8226 leukemia
HOP-62 NSCLC = system: HOP-62 NSCLC
CAKI-1 renal = system: CAKI-1 renal
786-0 renal = system: 786-0 renal
HS 578T breast = system: HS 578T breast
MDA-MB-231 breast = system: MDA-MB-231 breast
HCT-116 colon = system: HCT-116 colon
SF-268 CNS = system: SF-268 CNS
MALME-3M melanoma = system: MALME-3M melanoma

Structure (SMILES)	TGI (HCC-2998 colon) [µM]	TGI (RPMI-8226 leukemia) [µM]	TGI (HOP-62 NSCLC) [µM]	TGI (CAKI-1 renal) [µM]	TGI (786-0 renal) [µM]	TGI (HS 578T breast) [µM]	TGI (MDA-MB-231 breast) [µM]	TGI (HCT-116 colon) [µM]	TGI (SF-268 CNS) [µM]	TGI (MALME-3M melanoma) [µM]	GI50 (HCC-2998 colon) [µM]	GI50 (RPMI-8226 leukemia) [µM]	GI50 (CAKI-1 renal) [µM]	GI50 (HS 578T breast) [µM]	GI50 (MDA-MB-231 breast) [µM]	GI50 (HCT-116 colon) [µM]	GI50 (SF-268 CNS) [µM]	GI50 (MALME-3M melanoma) [µM]
COC1CCC(OC2CC(C3(C)CCC4(CC(O)C(C)C(C(C)/C=C(\C)C(=O)C(C)CC(C)C(=O)O)O4)O3)OC3(OC(C4OC(O)(CO)C(C)CC4C)CC3C)C2C)OC1C (stereo not drawn)	1.61	< 0.0386	2.87	2.21	1.21	1.15	0.517	1.66	2.84	0.103								
COc1cc(C2c3cc4c(cc3OC(N3CCOCC3)C2C)OCO4)cc(OC)c1O (stereo not drawn)	> 57.8	> 100	35.5	26.1	> 50.4	25.6	> 84.2	11.4	> 100	16.2								
Cc1cc2ccccc2c[n+]1CC(=O)CC([O-])(C(F)(F)F)C(F)(F)F	> 100	> 100	> 100	> 100	> 100	> 100	> 100	> 100	> 100	> 100								
CC(=O)Nc1ccc(Nc2nc(=O)[nH]c(=O)[nH]2)cc1	> 100	> 100	> 100	> 100	> 100	> 100	> 100	> 100	> 100	> 100								
C=C(Br)CN(C#N)CC(=C)Br	> 100	> 100	> 100	> 100	> 100	> 100	> 100	> 100	> 100	> 100								
COc1ccc(CN=CN/C(C#N)=C(\N)C#N)cc1OC	> 100	> 100	> 100	> 100	> 100	> 100	> 100	> 100	> 100	> 100								
COc1ccc2c(c1)CC[C@@H]1[C@@H]2CC[C@]2(C)/C(=N/OCCN3CCCCC3)CC[C@@H]12	8.26	6.35	21	4.17	3.41	26.6	23.6	5.67	24.7	4.89								
COc1cccc(/C=C/C2=NN(c3cccc(S(=O)(=O)O)c3)C3(C2)SCC(=O)N3c2nc3ccccc3s2)c1 (stereo not drawn)	> 100	52.4		> 100	43.1	> 100	> 100	> 100	> 100	> 100								
CC1(C)N=C(N)N=C(N)N1c1cccc(CSc2ccccc2)c1	> 100	> 100	> 100	> 100	> 100	68	> 100	> 100	> 100	> 100								
Cc1nn(-c2ccccc2)c(C)c1/C=N/NC(=O)c1sc(=S)n(-c2ccccc2)c1N	13.5	31.2	> 100	7.53	> 100	8.46	7.78	34.5	> 100	> 100								
COc1ccc(-c2cn3c(n2)sc2cc(C)ccc23)cc1	69.6	> 100	81.3	> 100	59.8	67.5	42.4	> 100	78.7	> 100								
COC(=O)c1c(O)ccc2c1c1c(n2C)C(=O)c2ccccc2C1=O	49.3	64.8	28	92.5	57	42.2	25.8	32.1	43.6	> 100								
COC(=O)C(Cc1ccccc1)NC(=O)CNC(=O)CSc1nnc(COc2ccc(Cl)cc2)n1-c1ccccc1 (stereo not drawn)	24.7	21.8	35.3	25.3	30.5	70.4	32.7	33	33	34.5								
COc1cccc(-c2cc(=O)c3cc(C)cnc3[nH]2)c1	2.67	29.6	> 100	> 100	> 25.3	> 100	> 100	> 40	> 100	> 100								
CCCCCCCCOCC1S(=O)(=O)OCCOS1(=O)=O	> 100	> 100	> 100	> 100	> 100	> 100	> 100	> 100	> 100	> 100								
COc1cccc(C2c3cc4c(cc3OC(N3CCOCC3)C2C)OCO4)c1O (stereo not drawn)	21.9	19.8	26	18.6	53.6	6.39	47.5	16.6	> 79.1	> 78.6								
Clc1ccc(-c2nc(-c3ccc(Cl)cc3)[s+]s2)cc1	> 100	90.6	> 100	> 100	> 100	> 100	> 100	> 100	> 100	77.7								
CCCCCc1c(CCCC)c(=O)[nH]c2cc(CNCC(OC)OC)ccc12	7.62	13.8	33.5	24.6	18.1	38.7	29.3	18.9	32.6	7.83								
NC1CCC(c2cc3ccccc3s2)(N2CCCCC2)CC1 (stereo not drawn)	2.21	2.28	4.5	10.1	2.83	20.5	12.9	3.05	15.8	7.79								
Nc1cc(CO)cc(Nc2c3ccccc3nc3occc23)c1	> 100	> 100	> 100	94.9	77.4	83.8	> 100	73.7	87.3	> 100								
CCCCCC(C)C[C@H]1CO[C@H](c2ccc[nH]2)N[C@H]1C(=O)OC (stereo partly drawn)	> 100	> 100	> 100	> 100	> 100	> 100	> 100	> 100	> 100	> 100								

Structure (SMILES)	TGI (HCC-2998 colon) [µM]	TGI (RPMI-8226 leukemia) [µM]	TGI (HOP-62 NSCLC) [µM]	TGI (CAKI-1 renal) [µM]	TGI (786-0 renal) [µM]	TGI (HS 578T breast) [µM]	TGI (MDA-MB-231 breast) [µM]	TGI (HCT-116 colon) [µM]	TGI (SF-268 CNS) [µM]	TGI (MALME-3M melanoma) [µM]	GI50 (HCC-2998 colon) [µM]	GI50 (RPMI-8226 leukemia) [µM]	GI50 (CAKI-1 renal) [µM]	GI50 (HS 578T breast) [µM]	GI50 (MDA-MB-231 breast) [µM]	GI50 (HCT-116 colon) [µM]	GI50 (SF-268 CNS) [µM]	GI50 (MALME-3M melanoma) [µM]
Cc1nc2ccccc2n1CCc1nc2ccccc2s1	> 100	> 100	> 100	> 100	> 100	> 100	> 100	> 100	> 100	> 100								
CN(C)CCCOC(=O)C(O)(Cc1ccccc1)C1CC1 (stereo not drawn)	> 100	> 100	> 100	> 100	> 100	> 100	> 100	> 100	> 100	> 100								
CC[C@H]1C=CCC[C@@]2(C[C@@H]3CC[C@@H]4[C@H](C(=O)OCCCCCCCCCCCCCCCC(=O)N(CCCN)C[C@@H](O)CCN)[C@]5(CCC[C@@H](C)O5)NC(=[N+]34)N2)O1	0.793	0.755	2.94		1.04	2.88	5.97	1.16	2.41	1.26								
COC(=O)/C=C1/OC(c2ccccc2)=C(Cl)C1=O	38.9	22.5	> 58	32.7	33.7	66.8	36	26.3	48.1	36								
Cc1nc2c(Br)cc(Br)cc2c(=O)n1-c1ccccc1N	> 100		> 100	96.2	> 100	> 100	> 100	66.9	> 100	> 100								
N#CC(c1ccccc1)c1cccc2ccccc12 (stereo not drawn)	81.8	67.9	> 100	52.1	> 100	> 100	> 100	> 100	98.8	50.7								
CN(C)Cc1cc(N=Nc2ccc(Cl)c(Cl)c2)ccc1O	24.4	38.8	15.3	25.4	24.2	21.9	18.2	29.8	18.7	29.6								
CCn1c2c(c3c(C(=O)OC)c(O)ccc31)C(=O)c1ccccc1C2=O	34.9	27.2	30.1	94.6	25.4	55.3	51.5	26.5	69.6	35								
CCCCCCCCCC[C@@H](O)[C@@H]1CC[C@@H]([C@@H]2CC[C@@H]([C@@H](O)CCCCCCCCCCC(O)CC3=CC(C)OC3=O)O2)O1 (stereo partly drawn)	> 10	> 10	> 10			> 10	> 10	> 10	> 10	> 10								
CN(C)Cc1cc(C(=O)/C=C/c2ccc(/C=C/C(=O)c3cc(CN(C)C)c(O)c(CN(C)C)c3)cc2)cc(CN(C)C)c1O	33.4	65.5	> 100	> 100	58.1	> 100	41.1	34	> 100	> 100								
CC1CC[C@]2(C(=O)O)CCC3(C)C(=C2[C@H]1C)C=CC1[C@@]2(C)CC[C@H](O)C(C)(C)C2CC[C@]13C (stereo partly drawn)	73.8	> 100	74.8	84.1	> 100	> 100	70	64.1	> 100	73.2								
CN(C)Cc1cc(C(=O)O)cc(CN(C)C)c1O	> 100	> 100	> 100	> 100	> 100	> 100	> 100	> 100	> 100	> 100								
Fc1cccc2nc(-c3ccccc3)cc(OCc3ccccc3)c12	> 100	> 100	> 100		> 100	> 100	> 100	> 100	> 100	> 100								
COc1cc2[nH]c(-c3ccccc3)cc(=O)c2cc1OC	> 87.4	> 100	> 100	> 100	> 100	> 100	> 87.3	> 49.7	> 100	> 100								
O=c1[nH]cnc2c1ncn2[C@H]1CO[C@@H](CO)[C@@H]1O	> 100	> 100	> 100	> 100	> 100	> 100	> 100	> 100	> 100	> 100								
CC(=O)Oc1ccc2c(c1)CC[C@@H]1C2[C@@H](O[N+](=O)[O-])C[C@@]2(C)C1CC[C@@H]2O (stereo partly drawn)	46.2	69.7	> 60.5	> 100	> 100	51.1	> 100	> 100	> 83	> 100								
CN(C)c1ccc(C(c2ccc(N(C)C)cc2)c2ccc([N+](=O)[O-])cc2)cc1	> 100	> 100	> 100	> 100	> 100	> 100	> 100	> 100	> 100	> 100								
COc1ccc2nc3c([N+](=O)[O-])ccc4c3c(c2c1)NCCN4C	4.63		3.16	9.13	3.37	5.21	3.01	2.88	7.63	2.6								
CC1(C)CCOC(=O)C(Cl)CC1Cl (stereo not drawn)	> 100		> 100	> 100	> 100	> 100	> 100	> 100	> 100	> 100								
NNC(=O)c1ccccc1NC(=O)/C(=C/c1ccccc1)NC(=O)c1ccccc1	> 100	> 100	> 100	> 100	> 100	> 100	> 100	> 100	> 100	> 100								
COc1ccc(-c2cn3ccnc3c(-c3ccc4ncn(C5CCCCC5)c4c3)n2)cc1	> 100	> 100		> 100		49.3	> 100	4.06	> 100	> 100	2.92	2.96	0.757	1.16	2.83	0.399	2.38	43.1
